In US9573956B2, “Compounds as dual inhibitors of phosphodiesterases and histone deacetylases” (FUNDACIÓN PARA LA INVESTIGACIÓN MÉDICA APLICADA, priority 2013, dated 2017):

Experiments:
Assay type in all cases: biochemical
HDAC1 = HDAC1 (Homo sapiens, UniProt Q13547); assay: HDAC enzyme activity assay (fluorogenic substrate), HDAC1; conditions: recombinant enzyme; read-out: HDAC1 inhibition (IC50)
PDE5A = molecular target: T1, PDE5A (Homo sapiens, UniProt O76074); assay: PDE enzyme activity assay (HTRF cGMP), PDE5A; conditions: recombinant enzyme; read-out: PDE5A1 inhibition (IC50)
T1 construct: they are full-length with N-terminal GST tag; GST (N); purchased BPS Biosciences 60050; host or cells: baculovirus infected Sf9 cells

PDE9A isoform b = molecular target: T2, PDE9A isoform b (Homo sapiens, UniProt O76083); assay: PDE enzyme activity assay (HTRF cGMP), PDE9A; conditions: recombinant enzyme; read-out: PDE9A inhibition (IC50)
T2 construct: they are full-length with N-terminal GST tag; GST (N); purchased BPS Biosciences 60090; host or cells: baculovirus infected Sf9 cells

HDAC6 = molecular target: T3, HDAC6 (Homo sapiens, UniProt Q9UBN7); assay: HDAC enzyme activity assay (fluorogenic substrate), HDAC6; conditions: recombinant enzyme; read-out: HDAC6 inhibition (IC50)
T3 construct: BC069243; Cat. #50006) is full-length with N-terminal GST tag; GST (N); purchased BPS Biosciences 50006; host or cells: baculovirus infected Sf9 cells
T3 sequence (Q9UBN7 1-1215): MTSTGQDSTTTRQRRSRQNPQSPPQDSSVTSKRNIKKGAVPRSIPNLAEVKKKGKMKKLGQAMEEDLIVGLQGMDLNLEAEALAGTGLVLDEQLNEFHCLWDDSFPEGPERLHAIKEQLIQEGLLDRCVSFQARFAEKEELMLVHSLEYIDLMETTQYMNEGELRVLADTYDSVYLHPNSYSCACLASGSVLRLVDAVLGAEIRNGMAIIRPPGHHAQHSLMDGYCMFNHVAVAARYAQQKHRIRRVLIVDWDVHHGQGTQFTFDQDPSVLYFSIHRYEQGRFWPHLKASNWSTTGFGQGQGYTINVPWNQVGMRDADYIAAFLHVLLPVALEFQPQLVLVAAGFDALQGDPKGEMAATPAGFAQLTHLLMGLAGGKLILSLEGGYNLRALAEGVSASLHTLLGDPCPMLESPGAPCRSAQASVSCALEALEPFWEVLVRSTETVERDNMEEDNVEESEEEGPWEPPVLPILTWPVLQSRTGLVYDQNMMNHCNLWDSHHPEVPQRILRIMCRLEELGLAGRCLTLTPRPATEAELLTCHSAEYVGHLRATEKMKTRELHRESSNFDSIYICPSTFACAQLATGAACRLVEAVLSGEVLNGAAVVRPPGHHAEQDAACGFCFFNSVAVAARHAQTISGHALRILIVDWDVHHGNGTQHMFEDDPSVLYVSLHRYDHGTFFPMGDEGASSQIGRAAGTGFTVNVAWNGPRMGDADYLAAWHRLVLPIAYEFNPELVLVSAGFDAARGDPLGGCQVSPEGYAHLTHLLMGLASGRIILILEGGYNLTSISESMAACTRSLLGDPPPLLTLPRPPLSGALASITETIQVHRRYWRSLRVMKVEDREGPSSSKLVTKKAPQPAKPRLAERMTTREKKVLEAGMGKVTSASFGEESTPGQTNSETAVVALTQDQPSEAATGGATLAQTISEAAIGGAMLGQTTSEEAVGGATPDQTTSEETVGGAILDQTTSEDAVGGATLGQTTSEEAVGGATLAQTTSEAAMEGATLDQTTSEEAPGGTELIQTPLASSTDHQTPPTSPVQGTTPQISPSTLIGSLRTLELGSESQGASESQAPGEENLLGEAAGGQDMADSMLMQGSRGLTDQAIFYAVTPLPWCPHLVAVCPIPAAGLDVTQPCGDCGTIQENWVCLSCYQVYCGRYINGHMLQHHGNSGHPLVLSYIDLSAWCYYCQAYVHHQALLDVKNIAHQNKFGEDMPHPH

HDAC2 = molecular target: T4, HDAC2 (Homo sapiens, UniProt Q92769); assay: HDAC enzyme activity assay (fluorogenic substrate), HDAC2; conditions: recombinant enzyme; read-out: HDAC2 inhibition (IC50)
T4 construct: NM_001527; Cat. #50002) is full-length with C-terminal his tag; His (C); purchased BPS Biosciences 50002; host or cells: baculovirus infected Sf9 cells
T4 sequence (Q92769 whole entry): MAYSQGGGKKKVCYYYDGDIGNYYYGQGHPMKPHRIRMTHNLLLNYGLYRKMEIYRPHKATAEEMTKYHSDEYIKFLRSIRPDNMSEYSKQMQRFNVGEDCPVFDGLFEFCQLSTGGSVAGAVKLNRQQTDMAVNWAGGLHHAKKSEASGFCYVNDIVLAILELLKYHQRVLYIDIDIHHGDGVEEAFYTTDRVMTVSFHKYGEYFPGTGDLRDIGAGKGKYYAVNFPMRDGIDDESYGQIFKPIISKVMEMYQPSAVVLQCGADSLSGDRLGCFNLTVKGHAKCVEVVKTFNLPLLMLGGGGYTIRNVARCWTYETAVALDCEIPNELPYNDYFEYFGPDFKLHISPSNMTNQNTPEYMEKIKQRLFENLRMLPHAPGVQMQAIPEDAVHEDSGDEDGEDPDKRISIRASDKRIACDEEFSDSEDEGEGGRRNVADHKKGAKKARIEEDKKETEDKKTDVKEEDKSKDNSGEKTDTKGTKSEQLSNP

HDAC1, sequence (Q13547 whole entry): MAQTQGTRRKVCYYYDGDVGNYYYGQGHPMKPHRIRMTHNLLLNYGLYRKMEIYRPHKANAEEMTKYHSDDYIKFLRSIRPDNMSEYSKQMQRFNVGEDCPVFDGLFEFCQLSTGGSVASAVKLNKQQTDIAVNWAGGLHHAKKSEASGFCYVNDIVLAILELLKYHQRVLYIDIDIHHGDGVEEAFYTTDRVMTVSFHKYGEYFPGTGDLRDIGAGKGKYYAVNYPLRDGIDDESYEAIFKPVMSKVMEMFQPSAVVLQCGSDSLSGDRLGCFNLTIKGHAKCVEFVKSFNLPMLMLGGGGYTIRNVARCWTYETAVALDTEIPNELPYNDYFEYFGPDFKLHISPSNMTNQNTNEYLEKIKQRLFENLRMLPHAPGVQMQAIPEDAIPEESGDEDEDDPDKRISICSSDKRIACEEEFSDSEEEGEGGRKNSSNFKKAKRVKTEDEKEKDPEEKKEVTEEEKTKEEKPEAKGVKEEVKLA
T2 sequence (O76083 1-533 isoform O76083-2): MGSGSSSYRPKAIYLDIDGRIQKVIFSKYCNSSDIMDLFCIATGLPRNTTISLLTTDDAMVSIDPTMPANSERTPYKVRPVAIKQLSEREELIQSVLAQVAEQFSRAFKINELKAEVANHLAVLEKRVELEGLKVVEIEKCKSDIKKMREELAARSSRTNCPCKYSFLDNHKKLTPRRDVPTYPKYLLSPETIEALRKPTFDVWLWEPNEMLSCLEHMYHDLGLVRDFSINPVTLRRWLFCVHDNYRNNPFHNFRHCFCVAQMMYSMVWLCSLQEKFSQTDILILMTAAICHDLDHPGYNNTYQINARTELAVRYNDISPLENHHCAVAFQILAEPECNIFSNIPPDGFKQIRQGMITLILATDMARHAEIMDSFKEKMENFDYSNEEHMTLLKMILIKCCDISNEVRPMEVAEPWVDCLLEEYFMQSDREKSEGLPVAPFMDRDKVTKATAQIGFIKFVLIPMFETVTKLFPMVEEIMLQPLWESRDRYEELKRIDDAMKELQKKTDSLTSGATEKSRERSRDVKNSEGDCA

IC50 (HDAC1)	IC50 (PDE5A)	IC50 (PDE9A isoform b)	IC50 (HDAC6)	IC50 (HDAC2)	Compound
0.01 to 1 µM	1 to 10 µM	0.01 to 1 µM	–	–	CC1CN(CC2CCN(c3ncc(C(=O)NO)cn3)CC2)CC1c1nc2c(cnn2C2CCOCC2)c(=O)[nH]1 (racemic) [Example 3-02, 2-(4-((3-(4,5-Dihydro-1-(tetrahydro-2H-pyran-4-yl)-4-oxo-1H-pyrazolo[3,4-d]pyrimidin-6-yl)-4-methylpyrrolidin-1-yl)methyl)piperidin-1-yl)-N-hydroxypyrimidine-5-carboxamide]
0.01 to 1 µM	–	< 0.01 µM	–	–	C[C@@H]1CN(Cc2ncc(-c3ccc(C(=O)NO)cc3)cn2)C[C@H]1c1nc2c(cnn2C2CCOCC2)c(=O)[nH]1 (racemic) [Example 3-04]
1 to 10 µM	–	0.01 to 1 µM	–	–	C[C@@H]1CN(Cc2cnc(N3CCC(C(=O)NO)CC3)nc2)C[C@H]1c1nc2c(cnn2C2CCOCC2)c(=O)[nH]1 (racemic) [Example 3-08]
> 10 µM	0.01 to 1 µM	–	1 to 10 µM	> 10 µM	CCCc1nn(C)c2c(=O)[nH]c(-c3cc(CC4CCN(C(=O)NO)CC4)ccc3OCC)nc12 [Example 1-49, 4-[[4-ethoxy-3-(1-methyl-7-oxo-3-propyl-6H-pyrazolo[4,3-d]pyrimidin-5-yl)phenyl]methyl]piperidine-1-carbohydroxamic acid]
1 to 10 µM	0.01 to 1 µM	–	1 to 10 µM	> 10 µM	CCCc1nn(C)c2c(=O)[nH]c(-c3cc(C4CCC(CC(=O)NO)CC4)ccc3OCC)nc12 (centres unmarked) [Example 1-51]
1 to 10 µM	0.01 to 1 µM	–	1 to 10 µM	1 to 10 µM	CCCc1nn(C)c2c(=O)[nH]c(-c3cc(OC4CCC(C(=O)NO)CC4)ccc3OCC)nc12 (centres unmarked) [Example 1-53]
0.01 to 1 µM	0.01 to 1 µM	–	1 to 10 µM	1 to 10 µM	CCCc1nn(C)c2c(=O)[nH]c(-c3cc(N4CCC(CCC(=O)NO)CC4)ccc3OCC)nc12 [Example 1-54]
1 to 10 µM	0.01 to 1 µM	–	0.01 to 1 µM	> 10 µM	CCCc1nn(C)c2c(=O)[nH]c(-c3cc(OCc4ccc(C(=O)NO)cc4)ccc3OCC)nc12 [Example 1-55]
> 10 µM	0.01 to 1 µM	–	1 to 10 µM	> 10 µM	CCCc1nn(C)c2c(=O)[nH]c(-c3cc(N4CCC5(CCC(C(=O)NO)C5)CC4)ccc3OCC)nc12 (centres unmarked) [Example 1-56, 8-[4-ethoxy-3-(1-methyl-7-oxo-3-propyl-6H-pyrazolo[4,3-d]pyrimidin-5-yl)phenyl]-8-azaspiro[4.5]decane-3-carbohydroxamic acid]
1 to 10 µM	0.01 to 1 µM	–	1 to 10 µM	> 10 µM	CCCc1nn(C)c2c(=O)[nH]c(-c3cc(Cc4ccc(/C=C/C(=O)NO)cc4)ccc3OCC)nc12 [Example 1-59]
> 10 µM	0.01 to 1 µM	–	> 10 µM	> 10 µM	CCCc1nn(C)c2c(=O)[nH]c(-c3cc(Cc4ccc(C(=O)NO)cc4OC)ccc3OCC)nc12 [Example 1-60]
0.01 to 1 µM	0.01 to 1 µM	–	0.01 to 1 µM	0.01 to 1 µM	CCCc1nn(C)c2c(=O)[nH]c(-c3cc(CC4CC(C(=O)NO)C4)ccc3OCC)nc12 (centres unmarked) [Example 1-62, 3-[[4-ethoxy-3-(1-methyl-7-oxo-3-propyl-6H-pyrazolo[4,3-d]pyrimidin-5 yl)phenyl]methyl]cyclobutanecarbohydroxamic acid]
0.01 to 1 µM	0.01 to 1 µM	–	0.01 to 1 µM	1 to 10 µM	CCCc1nn(C)c2c(=O)[nH]c(-c3cc(CC4CC(C(=O)NO)C4)ccc3OCC)nc12 (centres unmarked) [Example 1-63, 3-[[4-ethoxy-3-(1-methyl-7-oxo-3-propyl-6H-pyrazolo[4,3-d]pyrimidin-5 yl)phenyl]methyl]cyclobutanecarbohydroxamic acid]
1 to 10 µM	0.01 to 1 µM	–	> 10 µM	> 10 µM	CCCc1nn(C)c2c(=O)[nH]c(-c3cc(N4CCCC5(CCC(C(=O)NO)CC5)C4)ccc3OCC)nc12 (centres unmarked) [Example 1-65]
1 to 10 µM	0.01 to 1 µM	–	0.01 to 1 µM	> 10 µM	CCCc1nn(C)c2c(=O)[nH]c(-c3cc(Cc4ccc(C(=O)NO)c(F)c4)ccc3OCC)nc12 [Example 1-66]
> 10 µM	0.01 to 1 µM	–	> 10 µM	> 10 µM	CCCc1nn(C)c2c(=O)[nH]c(-c3cc(N4CCC5(CC5C(=O)NO)C4)ccc3OCC)nc12 (centres unmarked) [Example 1-67]
1 to 10 µM	0.01 to 1 µM	–	0.01 to 1 µM	> 10 µM	CCCc1nn(C)c2c(=O)[nH]c(-c3cc(Cc4ccc(C(=O)NO)cc4F)ccc3OCC)nc12 [Example 1-68]
0.01 to 1 µM	0.01 to 1 µM	–	1 to 10 µM	1 to 10 µM	CCCc1nn(C)c2c(=O)[nH]c(-c3cc(N4CCC5(CCN(c6ncc(C(=O)NO)cn6)CC5)C4)ccc3OCC)nc12 [Example 1-69, 2-[2-[4-ethoxy-3-(1-methyl-7-oxo-3-propyl-6H-pyrazolo[4,3-d]pyrimidin-5-yl)phenyl]-2,8-diazaspiro[4.5]decan-8-yl]pyrimidine-5-carbohydroxamic acid]
0.01 to 1 µM	0.01 to 1 µM	–	1 to 10 µM	1 to 10 µM	CCCc1nn(C)c2c(=O)[nH]c(-c3cc(N4CCC5(CCCN(c6ncc(C(=O)NO)cn6)C5)C4)ccc3OCC)nc12 (centres unmarked) [Example 1-70]
0.01 to 1 µM	0.01 to 1 µM	–	0.01 to 1 µM	1 to 10 µM	CCCc1nn(C)c2c(=O)[nH]c(-c3cc(C4CC(C(=O)NO)C4)ccc3OCC)nc12 (centres unmarked) [Example 1-84, 3-[4-ethoxy-3-(1-methyl-7-oxo-3-propyl-6H-pyrazolo[4,3-d]pyrimidin-5-yl)phenyl]cyclobutanecarbohydroxamic acid]
1 to 10 µM	0.01 to 1 µM	–	0.01 to 1 µM	1 to 10 µM	CCCc1nn(C)c2c(=O)[nH]c(-c3cc(C4CC(C(=O)NO)C4)ccc3OCC)nc12 (centres unmarked) [Example 1-85, 3-[4-ethoxy-3-(1-methyl-7-oxo-3-propyl-6H-pyrazolo[4,3-d]pyrimidin-5-yl)phenyl]cyclobutanecarbohydroxamic acid]
1 to 10 µM	0.01 to 1 µM	–	1 to 10 µM	> 10 µM	CCCc1nn(C)c2c(=O)[nH]c(-c3cc(CC4CC4C(=O)NO)ccc3OCC)nc12 (centres unmarked) [Example 1-86, 2-[[4-ethoxy-3-(1-methyl-7-oxo-3-propyl-6H-pyrazolo[4,3-d]pyrimidin-5-yl)phenyl]methyl]cyclopropanecarbohydroxamic acid]
1 to 10 µM	< 0.01 µM	–	0.01 to 1 µM	1 to 10 µM	CCCc1nc(C)c2c(=O)[nH]c(-c3cc(Cc4ccc(/C=C/C(=O)NO)cc4)ccc3OCC)nn12 [Example 2-08]
> 10 µM	–	0.01 to 1 µM	–	–	CC(c1nc2c(cnn2C2CCOCC2)c(=O)[nH]1)N1CC(Oc2ccc(N3CCC(C(=O)NO)CC3)cc2)C1 (centres unmarked) [Example 3-05]
0.01 to 1 µM	–	< 0.01 µM	–	–	CC(c1nc2c(cnn2C2CCOCC2)c(=O)[nH]1)N1CC(Oc2ccc(/C=C/C(=O)NO)cc2)C1 (centres unmarked) [Example 3-06]
0.01 to 1 µM	–	0.01 to 1 µM	–	–	CC(c1nc2c(cnn2C2CCOCC2)c(=O)[nH]1)N1CC(OC2CCN(c3ncc(C(=O)NO)cn3)CC2)C1 (centres unmarked) [Example 3-07]
–	1 to 10 µM	> 10 µM	–	–	COc1ccc(C(=O)Nc2c(Cl)cncc2Cl)cc1OC1CCCC1 [Piclamilast, reference compound]
